Experimental data taken from US7390923B2, “Propionamide derivatives useful as androgen receptor modulators” (Orion Corporation, priority 2003, dated 2008).

Key:
AR = biological target: T1, AR (Rattus norvegicus, UniProt P15207); experiment: AR agonism and antagonism in immature male rats, 3-day assay, relative organ weights
T1 sequence (P15207 1-902): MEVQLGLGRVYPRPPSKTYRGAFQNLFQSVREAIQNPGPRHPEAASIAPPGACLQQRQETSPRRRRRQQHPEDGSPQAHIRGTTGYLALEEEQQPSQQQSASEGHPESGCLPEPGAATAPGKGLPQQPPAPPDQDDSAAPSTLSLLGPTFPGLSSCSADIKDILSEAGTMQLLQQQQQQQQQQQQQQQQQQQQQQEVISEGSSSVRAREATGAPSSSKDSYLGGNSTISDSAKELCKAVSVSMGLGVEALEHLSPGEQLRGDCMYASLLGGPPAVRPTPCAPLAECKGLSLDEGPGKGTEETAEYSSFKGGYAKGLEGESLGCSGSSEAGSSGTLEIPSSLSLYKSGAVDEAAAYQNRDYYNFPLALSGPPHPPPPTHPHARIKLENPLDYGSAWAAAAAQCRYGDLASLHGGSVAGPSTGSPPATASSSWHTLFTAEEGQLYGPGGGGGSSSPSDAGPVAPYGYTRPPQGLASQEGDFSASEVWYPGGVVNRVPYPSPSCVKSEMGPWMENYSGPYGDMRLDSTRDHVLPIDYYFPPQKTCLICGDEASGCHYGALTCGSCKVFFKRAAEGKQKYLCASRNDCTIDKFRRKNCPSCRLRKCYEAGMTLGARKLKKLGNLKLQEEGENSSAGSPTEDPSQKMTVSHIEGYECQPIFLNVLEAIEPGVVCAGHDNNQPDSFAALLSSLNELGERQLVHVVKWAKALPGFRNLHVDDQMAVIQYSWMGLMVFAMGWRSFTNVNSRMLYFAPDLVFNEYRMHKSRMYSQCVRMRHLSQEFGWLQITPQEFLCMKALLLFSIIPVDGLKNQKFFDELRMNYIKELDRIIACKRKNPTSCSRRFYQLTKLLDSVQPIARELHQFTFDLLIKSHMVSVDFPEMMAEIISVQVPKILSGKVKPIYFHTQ
Procedure: The title compound of Example 3, abbreviated here as compound A, was further studied in in vivo experiment. The agonism and antagonism of the compound with subcutaneous dosing was tested in immature male Spraque Dawley rat 3-day assay by analyzing the relative weights of ventral prostate, seminal vesicle, and levator ani-muscle. Testosterone propionate was used as a reference compound.
Testosterone propionate (abbreviated here TP) and compound A were first dissolved into DMSO and then into the vehicle sesame oil. Sprague-Dawley untreated male rats (18-19 days old) weighing about 50 g were used in the experiment. Rats were weighed and randomly distributed into five groups, with 5 animals per group (Table 1). Compound A (doses 2 and 20 mg/kg) and testosterone propionate (dose 5 mg/kg) were given subcutaneously (s.c.) into the neck/back of the animals at a constant volume of 100 microl dosing solution/animal/day. The animals were dosed once daily for three days, and clinical signs were recorded during dosing. At the end of the study, animals were weighed and anaesthetised by CO2 asphyxiation. Ventral prostate, seminal vesicles, and levator ani-muscle were dissected out, chilled, and weighed. For statistical analysis, the weights of all organs were normalized to body weights, and analyzed for statistical significant difference by single-factor ANOVA.
In the Figure, “a” means agonism, p<0.01 compared to vehicle group, “b” means antagonism, p<0.05 compared to testosterone group, bars represent mean±SEM.

androgen receptor (AR) = biological target: T2, androgen receptor (AR) (Rattus norvegicus, UniProt P15207); experiment: AR binding assay, competition with [3H]-mibolerone binding in rat ventral prostate cytosol; details: 1 nM [3H]-mibolerone, overnight at 0° C.
T2 construct: Ventral prostates were obtained form rats castrated 24 h prior to sacrifice; from tissue; host or cells: rat ventral prostate cytosol (castrated rats, charcoal-treated)
T2 sequence (P15207 1-902): T1 sequence (P15207 1-902)
Procedure: Ventral prostates were obtained form rats castrated 24 h prior to sacrifice. Fresh prostate was minced and washed with Buffer A (Schilling and Liao, Prostate, 5:581-588, 1984). The minces were then homogenized in 3× volume of Buffer A containing protease inhibitors (Complete, Mini, EDTA-free Roche). The homogenate was centrifuged at 30000 g for 30 min. The resultant supernatants were treated with 1×volume of dextran-coated charcoal solution (12.5 g activated charcoal, 12.5 g dextran per liter of buffer A) to remove endogenous steroids. The samples were incubated for 5 min and centrifuged at 16000 g for 10 min. Aliquots of the charcoal-treated cytosol were taken for androgen receptor assays. All procedures were carried out at 0-4° C.
Cytosol androgen receptor concentration was determined as described (Isomaa et al., Endocrinology, 111: 833-843, 1982) with minor modifications. Cytosol preparations were prepared as described above, and bound and free steroids were separated by treatment with an equal volume of dextran-charcoal suspension for 5 min at 4° C. followed by centrifugation at 16000 g for 10 min. Bound radioactivity was determined by counting supernatant fractions in 1 ml of OptiPhase HiSafe3 or OptiPhase Supermix (PerkinElmer).
Cytosol preparations were labelled with 1 nM [^3H]-mibolerone overnight at 0° C. (total). To determine AR binding activity of the compounds of the present invention (test compounds), the ability of test compounds to compete with [^3H]7α,17α-dimethyl-17β-hydroxy-4-estren-3-one ([^3H]-mibolerone) binding was studied. 1 nM [^3H]-mibolerone and test compounds in two concentrations (0.2 and 2 uM) were incubated overnight at 0° C. To determine non-specific binding, parallel incubations were carried out using 1 nM concentration [^3H]-mibolerone with 500-fold molar excess of unlabelled testosterone. Two to four replicates were used for each sample. After incubation, bound and free steroids were separated as described above and bound radioactivity was determined. The ability of the test compounds to bind AR is reported as reduction in bound radioactivity obtained with 1 nM [^3H]-mibolerone. The results (% inhibition) were calculated as: % inhibition=100−(100×(averagetest compound/averagetotal)).

[1] = 20 mg/kg s.c. once daily for three days, immature male rat
[2] = 5 mg/kg s.c. once daily for three days, immature male rat

SMILES	relative weight of levator ani-muscle (AR; [1])	relative weight of the prostate (AR; [1])	antagonistic activity in seminal vesicle (AR; TP 5 mg/kg + compound A 20 mg/kg s.c., p<0.05 compared to testosterone group)	androgenic and anabolic activity (AR; s.c. 2 and 20 mg/kg, immature male rat, FIG. 1)	effect on the body weights (AR; s.c. once daily for three days, immature male rat, data not shown)	tissue selectivity compared with testosterone propionate (AR; s.c., immature male rat)	inhibition at 0.2 µM (androgen receptor (AR); test compound 0.2 μM)	inhibition at 2 µM (androgen receptor (AR); test compound 2.0 μM)	relative weight of levator ani-muscle (AR; [2])	relative weight of seminal vesicle (AR; [2])	relative weight of ventral prostate (AR; [2])	effect on the body weights (AR; rat, in vivo, sc)
CC(=O)Nc1ccc(OC[C@](C)(O)C(=O)Nc2ccc([N+](=O)[O-])c(C)c2)cc1 [Example 3, (2S)-3-(4-Acetylaminophenoxy)-2-hydroxy-2-methyl-N-(3-methyl-4-nitrophenyl)propionamide]	clearly increased	only minimally	significant antagonistic activity	shows androgenic and anabolic activity	Neither testosterone propionate nor compound A had any effect	showed tissue selectivity	103%	115%				
CCC(=O)O[C@H]1CC[C@H]2[C@@H]3CCC4=CC(=O)CC[C@]4(C)[C@H]3CC[C@]12C [testosterone propionate, Testosterone propionate, reference compound]									increased significantly	increased significantly	increased significantly	Neither testosterone propionate nor compound A had any effect
